The record followed here is ChEMBL document CHEMBL5465560, “Selectivity Literature for EUbOPEN Chemogenomic Library” (2024).

In assay [1] the target is T1, Mitogen-activated protein kinase 15 (Homo sapiens) (UniProt Q8TD08).
T1 sequence (whole entry): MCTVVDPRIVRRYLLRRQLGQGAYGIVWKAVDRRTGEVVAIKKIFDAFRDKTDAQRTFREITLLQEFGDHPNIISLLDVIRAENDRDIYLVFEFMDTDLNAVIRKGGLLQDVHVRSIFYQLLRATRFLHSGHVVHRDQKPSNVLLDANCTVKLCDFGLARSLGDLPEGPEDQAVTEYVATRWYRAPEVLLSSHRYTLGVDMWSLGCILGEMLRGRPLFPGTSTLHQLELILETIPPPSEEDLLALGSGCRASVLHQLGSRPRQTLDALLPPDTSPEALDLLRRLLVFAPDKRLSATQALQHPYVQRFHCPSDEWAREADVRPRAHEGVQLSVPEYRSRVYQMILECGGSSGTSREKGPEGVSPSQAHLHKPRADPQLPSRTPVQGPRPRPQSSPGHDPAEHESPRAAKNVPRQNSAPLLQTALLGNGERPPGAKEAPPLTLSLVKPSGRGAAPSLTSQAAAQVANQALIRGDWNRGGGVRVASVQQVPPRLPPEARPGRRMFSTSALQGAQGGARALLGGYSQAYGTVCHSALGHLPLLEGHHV
Kind of assay: Selectivity interaction (Rxn Biology Kinase assay) EUB0001632a MAPK15. Conditions: at 10 µM.

For assay [2], the target named is T2, Inhibitor of nuclear factor kappa-B kinase subunit epsilon (Homo sapiens) (UniProt Q14164).
T2 sequence (whole entry): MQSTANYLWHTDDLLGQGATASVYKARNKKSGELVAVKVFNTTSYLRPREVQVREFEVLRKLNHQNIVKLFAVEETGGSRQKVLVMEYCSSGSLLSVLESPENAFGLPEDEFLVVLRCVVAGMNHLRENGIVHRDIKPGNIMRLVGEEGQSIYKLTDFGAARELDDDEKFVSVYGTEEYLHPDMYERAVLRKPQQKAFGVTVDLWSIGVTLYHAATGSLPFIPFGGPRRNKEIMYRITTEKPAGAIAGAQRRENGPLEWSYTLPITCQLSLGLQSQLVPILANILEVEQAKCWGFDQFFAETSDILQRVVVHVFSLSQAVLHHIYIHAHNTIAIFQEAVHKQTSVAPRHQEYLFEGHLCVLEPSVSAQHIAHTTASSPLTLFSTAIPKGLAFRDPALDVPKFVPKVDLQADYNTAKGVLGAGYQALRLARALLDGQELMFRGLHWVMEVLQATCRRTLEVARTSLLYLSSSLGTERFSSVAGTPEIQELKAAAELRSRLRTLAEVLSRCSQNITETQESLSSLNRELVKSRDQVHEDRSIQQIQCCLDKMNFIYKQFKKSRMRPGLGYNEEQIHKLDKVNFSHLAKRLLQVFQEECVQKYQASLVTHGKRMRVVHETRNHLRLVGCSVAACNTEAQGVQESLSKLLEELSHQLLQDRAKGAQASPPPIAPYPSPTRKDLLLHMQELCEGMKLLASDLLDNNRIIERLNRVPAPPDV
Kind of assay: Selectivity interaction (KinomeScan (DiscoverX)) EUB0000695a IKBKE. The following applies: at 100 nM.

In assay [3] the target is T3, Serine/threonine-protein kinase LATS1 (Homo sapiens) (UniProt O95835).
T3 sequence (whole entry): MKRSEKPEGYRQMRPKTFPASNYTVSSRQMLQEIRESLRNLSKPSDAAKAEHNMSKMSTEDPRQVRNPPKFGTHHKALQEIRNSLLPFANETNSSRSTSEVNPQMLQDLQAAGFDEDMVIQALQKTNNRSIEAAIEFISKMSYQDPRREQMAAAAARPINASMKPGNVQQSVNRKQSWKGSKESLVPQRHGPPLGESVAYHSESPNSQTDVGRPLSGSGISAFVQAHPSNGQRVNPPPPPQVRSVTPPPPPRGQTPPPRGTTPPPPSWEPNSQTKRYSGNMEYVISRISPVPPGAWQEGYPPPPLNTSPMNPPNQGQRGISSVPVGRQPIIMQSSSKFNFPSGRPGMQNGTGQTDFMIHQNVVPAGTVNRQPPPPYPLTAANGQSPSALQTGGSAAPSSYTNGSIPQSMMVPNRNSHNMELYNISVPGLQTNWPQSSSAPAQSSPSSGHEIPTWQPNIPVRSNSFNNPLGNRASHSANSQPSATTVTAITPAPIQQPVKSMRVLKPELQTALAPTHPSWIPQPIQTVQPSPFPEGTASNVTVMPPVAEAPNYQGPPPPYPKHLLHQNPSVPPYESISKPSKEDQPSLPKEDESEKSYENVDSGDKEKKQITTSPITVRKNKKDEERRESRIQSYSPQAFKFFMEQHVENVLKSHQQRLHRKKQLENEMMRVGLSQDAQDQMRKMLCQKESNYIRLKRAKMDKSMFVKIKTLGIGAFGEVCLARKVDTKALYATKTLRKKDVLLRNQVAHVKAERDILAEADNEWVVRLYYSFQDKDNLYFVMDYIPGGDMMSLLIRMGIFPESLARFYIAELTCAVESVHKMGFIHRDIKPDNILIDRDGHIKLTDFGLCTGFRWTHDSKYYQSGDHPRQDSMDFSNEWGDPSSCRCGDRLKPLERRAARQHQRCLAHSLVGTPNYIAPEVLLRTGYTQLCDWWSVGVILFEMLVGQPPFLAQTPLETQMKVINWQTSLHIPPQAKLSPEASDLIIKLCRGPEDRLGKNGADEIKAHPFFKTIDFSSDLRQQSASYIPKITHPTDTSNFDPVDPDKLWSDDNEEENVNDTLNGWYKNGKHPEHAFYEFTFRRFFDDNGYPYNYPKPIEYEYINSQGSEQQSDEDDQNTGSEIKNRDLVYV
Briefly: Selectivity interaction (KinomeScan (DiscoverX)) EUB0000695a LATS1. Conditions: at 100 nM.

Assay [4] concerns the target Casein kinase I isoform delta (Homo sapiens, UniProt P48730). Kind of assay: Selectivity interaction (SelectScreen profiling (Invitrogen)) EUB0000607a CSNK1D. The following applies: at 2 µM.
In assay [5] the target is Ribosomal protein S6 kinase alpha-2 (Homo sapiens) (UniProt Q15349). Briefly: Selectivity interaction (Kinase panel (Invitrogen)) EUB0000639a RPS6KA2. The following applies: at 200 nM.
Assay [6] deals with Serine/threonine-protein kinase N2 (Homo sapiens, UniProt Q16513). Kind of assay: Selectivity interaction (Ambit KINOMEscan and KiNATiv profiling in Jurkat cells) EUB0000090b PKN2. In kind it is cell-based. The following applies: at 1 µM.
Assay [7] has as its target Transcription initiation factor TFIID subunit 1-like (Homo sapiens) (UniProt Q8IZX4). Kind of assay: Selectivity interaction (Human bromodomain panel (DSF assay)) EUB0000233b TAF1L. A general note: DSF heats the sample and reads unfolding from a dye or from intrinsic fluorescence.
Assay [8] addresses Serine/threonine-protein kinase MARK2 (Homo sapiens) (UniProt Q7KZI7). Briefly: Selectivity interaction (KinomeScan (DiscoverX)) EUB0001079a MARK2. Conditions: at 1 µM.
The target of assay [9] is Cyclin-dependent kinase 17 (Homo sapiens) (UniProt Q00537). Briefly: Selectivity interaction (KinomeScan (DiscoverX)) EUB0001079a CDK17. Conditions: at 1 µM.
Chain of Cyclin-dependent kinase 17 (Homo sapiens) (Q00537 whole entry, looked up): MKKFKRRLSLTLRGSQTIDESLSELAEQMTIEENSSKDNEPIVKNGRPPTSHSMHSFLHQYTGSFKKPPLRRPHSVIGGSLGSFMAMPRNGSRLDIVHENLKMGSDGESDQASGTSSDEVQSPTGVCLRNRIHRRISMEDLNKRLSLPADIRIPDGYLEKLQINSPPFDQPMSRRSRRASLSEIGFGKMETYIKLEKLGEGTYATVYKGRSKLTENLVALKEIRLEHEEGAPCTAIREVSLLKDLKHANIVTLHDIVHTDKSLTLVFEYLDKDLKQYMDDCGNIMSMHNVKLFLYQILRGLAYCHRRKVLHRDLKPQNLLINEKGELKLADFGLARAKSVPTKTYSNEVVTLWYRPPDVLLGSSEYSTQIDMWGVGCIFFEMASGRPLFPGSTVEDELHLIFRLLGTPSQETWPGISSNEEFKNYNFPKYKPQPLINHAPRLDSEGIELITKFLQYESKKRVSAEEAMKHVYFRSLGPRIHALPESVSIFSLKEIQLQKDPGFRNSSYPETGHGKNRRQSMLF

Chain of Serine/threonine-protein kinase N2 (Q16513 whole entry, looked up): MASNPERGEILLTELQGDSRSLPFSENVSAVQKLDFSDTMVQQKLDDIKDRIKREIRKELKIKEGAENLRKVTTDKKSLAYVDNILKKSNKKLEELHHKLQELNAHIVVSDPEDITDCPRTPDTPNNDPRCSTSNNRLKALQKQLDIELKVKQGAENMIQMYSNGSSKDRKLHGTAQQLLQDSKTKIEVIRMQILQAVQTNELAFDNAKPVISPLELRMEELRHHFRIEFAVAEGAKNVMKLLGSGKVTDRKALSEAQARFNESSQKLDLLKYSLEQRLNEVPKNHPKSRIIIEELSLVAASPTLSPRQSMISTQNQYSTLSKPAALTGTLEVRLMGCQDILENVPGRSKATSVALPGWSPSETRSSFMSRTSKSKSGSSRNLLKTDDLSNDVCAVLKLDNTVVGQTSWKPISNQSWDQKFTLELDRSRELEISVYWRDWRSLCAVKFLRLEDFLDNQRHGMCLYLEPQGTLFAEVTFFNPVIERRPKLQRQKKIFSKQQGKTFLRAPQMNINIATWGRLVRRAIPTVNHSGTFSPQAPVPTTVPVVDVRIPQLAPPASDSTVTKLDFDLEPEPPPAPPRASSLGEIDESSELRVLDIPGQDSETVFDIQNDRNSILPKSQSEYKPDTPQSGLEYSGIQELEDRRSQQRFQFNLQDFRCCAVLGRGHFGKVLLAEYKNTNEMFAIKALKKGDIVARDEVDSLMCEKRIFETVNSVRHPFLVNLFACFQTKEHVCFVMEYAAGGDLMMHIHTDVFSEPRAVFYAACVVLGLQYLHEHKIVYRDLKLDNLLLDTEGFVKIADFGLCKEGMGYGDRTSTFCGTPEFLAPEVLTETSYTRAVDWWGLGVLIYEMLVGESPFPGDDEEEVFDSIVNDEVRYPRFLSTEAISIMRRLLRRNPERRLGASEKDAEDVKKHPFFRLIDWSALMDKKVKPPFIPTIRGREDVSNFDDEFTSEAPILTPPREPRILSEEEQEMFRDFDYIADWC
Chain of Casein kinase I isoform delta (P48730 whole entry, looked up, canonical isoform): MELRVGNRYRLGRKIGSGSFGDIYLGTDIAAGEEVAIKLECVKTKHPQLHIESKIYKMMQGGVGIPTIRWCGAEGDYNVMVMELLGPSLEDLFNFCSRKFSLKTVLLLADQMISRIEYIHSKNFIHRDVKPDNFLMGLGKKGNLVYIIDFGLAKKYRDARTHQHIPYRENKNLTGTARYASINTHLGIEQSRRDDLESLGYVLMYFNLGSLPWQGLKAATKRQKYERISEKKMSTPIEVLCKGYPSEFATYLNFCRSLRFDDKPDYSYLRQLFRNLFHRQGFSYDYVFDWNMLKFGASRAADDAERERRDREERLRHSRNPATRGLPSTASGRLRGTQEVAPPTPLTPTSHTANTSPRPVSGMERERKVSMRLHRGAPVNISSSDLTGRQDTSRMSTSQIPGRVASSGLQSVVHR
Chain of Ribosomal protein S6 kinase alpha-2 (Homo sapiens) (Q15349 whole entry): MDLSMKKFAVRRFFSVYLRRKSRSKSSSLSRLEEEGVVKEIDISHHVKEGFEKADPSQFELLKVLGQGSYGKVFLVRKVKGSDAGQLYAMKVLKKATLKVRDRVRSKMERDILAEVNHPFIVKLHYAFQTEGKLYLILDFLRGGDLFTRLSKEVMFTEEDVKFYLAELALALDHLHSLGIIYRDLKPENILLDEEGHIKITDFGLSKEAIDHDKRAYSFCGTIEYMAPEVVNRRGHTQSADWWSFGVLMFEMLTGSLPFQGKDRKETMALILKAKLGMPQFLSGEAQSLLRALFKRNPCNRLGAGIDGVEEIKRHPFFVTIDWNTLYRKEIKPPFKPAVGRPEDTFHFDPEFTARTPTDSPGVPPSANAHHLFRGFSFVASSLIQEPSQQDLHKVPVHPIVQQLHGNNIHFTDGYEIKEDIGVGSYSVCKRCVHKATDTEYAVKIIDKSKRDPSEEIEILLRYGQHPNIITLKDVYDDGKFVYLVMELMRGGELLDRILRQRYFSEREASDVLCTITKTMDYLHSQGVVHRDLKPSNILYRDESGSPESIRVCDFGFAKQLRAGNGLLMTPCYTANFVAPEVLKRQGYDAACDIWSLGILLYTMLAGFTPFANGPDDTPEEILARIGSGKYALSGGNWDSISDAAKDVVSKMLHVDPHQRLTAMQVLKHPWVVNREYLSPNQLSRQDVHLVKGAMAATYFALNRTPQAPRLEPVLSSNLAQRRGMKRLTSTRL
Chain of Serine/threonine-protein kinase MARK2 (Homo sapiens) (Q7KZI7 whole entry): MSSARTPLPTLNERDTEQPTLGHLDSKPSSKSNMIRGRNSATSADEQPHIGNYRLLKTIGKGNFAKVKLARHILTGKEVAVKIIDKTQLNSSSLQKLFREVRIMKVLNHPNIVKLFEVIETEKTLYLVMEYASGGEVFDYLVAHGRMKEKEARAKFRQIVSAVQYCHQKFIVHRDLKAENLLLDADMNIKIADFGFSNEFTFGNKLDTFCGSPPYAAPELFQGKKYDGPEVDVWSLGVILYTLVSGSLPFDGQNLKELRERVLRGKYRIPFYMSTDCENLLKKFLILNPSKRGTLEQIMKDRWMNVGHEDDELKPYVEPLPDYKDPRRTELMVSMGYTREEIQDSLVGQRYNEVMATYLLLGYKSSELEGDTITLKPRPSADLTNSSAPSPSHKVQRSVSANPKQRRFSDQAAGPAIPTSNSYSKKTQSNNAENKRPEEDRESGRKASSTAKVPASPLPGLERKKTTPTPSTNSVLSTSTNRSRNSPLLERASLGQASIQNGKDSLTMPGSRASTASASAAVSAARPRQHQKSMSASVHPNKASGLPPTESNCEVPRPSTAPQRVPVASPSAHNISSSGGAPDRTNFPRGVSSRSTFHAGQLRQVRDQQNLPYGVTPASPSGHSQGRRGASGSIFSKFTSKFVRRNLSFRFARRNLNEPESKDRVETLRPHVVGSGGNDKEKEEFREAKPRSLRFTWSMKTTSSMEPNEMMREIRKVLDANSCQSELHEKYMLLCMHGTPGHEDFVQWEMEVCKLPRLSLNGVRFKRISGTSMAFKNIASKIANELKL

Take `Cn1cc(-n2cnc3c(NCc4nc5cc(Cl)c(Cl)cc5[nH]4)nc(N4CCOCC4)nc32)cn1`: the % of inhibition in [1] was -25.6%.
`Cc1cc(F)c(C(=O)Nc2cccc(-c3nncn3C(C)C)n2)cc1-n1cnc(C2CC2)c1`: the values for the % of control in [2] and in assay [3] were 100% and 86%, respectively.
Regarding `CNC(=O)Nc1ccc(-c2nc(N3CC4CCC(C3)O4)c3cnn(C4CCC5(CC4)OCCO5)c3n2)cc1`, in assay [4], the % of inhibition came out at 2%.
For `CC[C@@H]1[C@H](F)C(=O)N[C@@H]1COc1nccc2cc(C(N)=O)c(OC)cc12` [ZIMLOVISERTIB], in assay [5], the % of inhibition was -0.472%.
`CN(C)C/C=C/C(=O)Nc1ccc(C(=O)N2CCCC(Nc3ncc(Cl)c(-c4c[nH]c5ccccc45)n3)C2)cc1` (centres undefined): the % of control in [6] stood at 98%.
In the case of `CN(C)CCCOc1ccc(-c2cc(NCCCn3cccn3)nc(S(C)(=O)=O)n2)cc1`, the dTM in assay [7] was less than 2 K.
On to `Nc1cnc(N2CCc3cc(S(=O)(=O)Nc4c(F)cc(Cl)cc4F)cc(N4CCCC4=O)c32)nc1` [TP-020n], for which the % of control in assay [8] was determined as 74%; in assay [9] it was 100%.
